Test results: PubChem BioAssay AID330 (DTP/NCI, 2004)
Where “and” joins values, the source holds several entries; their conditions need not be identical. Identical values can stand only once. Inconclusive results and toxic doses are left out. How the source made its calls: active means survival T/C of 150% or more; inactive means T/C below 125% in these data.

Tested on: P388 leukemia ip, CD2F1 mice, survival T/C
Experiment: NCI In Vivo Anticancer Drug Screen. Data for tumor model P388 Leukemia (intraperitoneal) in CD2F1 (CDF1) mice
Conditions: endpoint: median survival time, higher = longer survival
Summary of the method: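 Mice carrying the transplanted tumor received test compound or vehicle. Survival was recorded in each group, and the value is the treated-group measurement divided by that of the vehicle-treated control group.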

[1] = dose: 50.0 mg/kg/injection, schedule: Q01DX009 (ip), vehicle: saline with Tween-80
[2] = dose: 100.0 mg/kg/injection, schedule: Q01DX009 (ip), vehicle: saline with Tween-80
[3] = dose: 200.0 mg/kg/injection, schedule: Q01DX009 (ip), vehicle: saline with Tween-80
[4] = dose: 60.0 mg/kg/injection, schedule: Q01DX005 (ip), vehicle: saline with Tween-80
[5] = dose: 120.0 mg/kg/injection, schedule: Q01DX005 (ip), vehicle: saline with Tween-80
[6] = dose: 50.0 mg/kg/injection, schedule: Q01DX009 (ip), vehicle: saline
[7] = dose: 100.0 mg/kg/injection, schedule: Q04DX003 (ip), vehicle: Klucel (hydroxypropylcellulose) (HPC)
[8] = dose: 200.0 mg/kg/injection, schedule: Q04DX003 (ip), vehicle: Klucel (hydroxypropylcellulose) (HPC)
[9] = dose: 400.0 mg/kg/injection, schedule: Q04DX003 (ip), vehicle: Klucel (hydroxypropylcellulose) (HPC)

Measured: T/C

Nc1ccc2nc3c(N)ccc(N)c3nc2c1
inactive: dose: 3.75 mg/kg/injection, schedule: Q01DX005 (ip), vehicle: saline 100 % of control and 103 % of control | dose: 7.5 mg/kg/injection, schedule: Q01DX005 (ip), vehicle: saline 100 % of control and 105 % of control | dose: 15.0 mg/kg/injection, schedule: Q01DX005 (ip), vehicle: saline 100 % of control and 109 % of control | dose: 30.0 mg/kg/injection, schedule: Q01DX005 (ip), vehicle: saline 111 % of control and 116 % of control | dose: 60.0 mg/kg/injection, schedule: Q01DX005 (ip), vehicle: saline 116 % of control | dose: 120.0 mg/kg/injection, schedule: Q01DX005 (ip), vehicle: saline 118 % of control

O=C(Cc1cc2c(cc1Br)OCO2)NCCc1ccc2c(c1)OCO2
inactive: dose: 12.5 mg/kg/injection, schedule: Q01DX001 (ip), vehicle: saline + alcohol 99 % of control | dose: 25.0 mg/kg/injection, schedule: Q01DX001 (ip), vehicle: saline + alcohol 98 % of control | dose: 50.0 mg/kg/injection, schedule: Q01DX001 (ip), vehicle: saline + alcohol 105 % of control

Cc1ccccc1NC(CCN1CCCCC1)=NC(C)(C)C
inactive: [1] 111 % of control | [2] 103 % of control | [3] 100 % of control

CSCOC/C=C(\C)CCC=C(C)C
inactive: [1] 98 % of control | [2] 100 % of control | [3] 114 % of control

CC(C)(C)c1cc(C(=O)[O-])c([OH2+])c(C(C)(C)C)c1.CC(C)(C)c1cc(C(=O)[O-])c([OH2+])c(C(C)(C)C)c1.[Mn+2]
inactive: [4] 106 % of control and 111 % of control | [5] 105 % of control and 121 % of control

Cc1cc(O)c([N+](=O)[O-])c(O)c1
inactive: [6] 96 % of control | dose: 100.0 mg/kg/injection, schedule: Q01DX009 (ip), vehicle: saline 103 % of control | dose: 200.0 mg/kg/injection, schedule: Q01DX009 (ip), vehicle: saline 100 % of control

O=C1OCC/C1=C\NCCCN/C=C1\CCOC1=O
inactive: [4] 107 % of control | [5] 100 % of control | dose: 240.0 mg/kg/injection, schedule: Q01DX005 (ip), vehicle: saline with Tween-80 105 % of control

COc1cccc2c1C(=O)c1c(O)c3c(c(O)c1C2=O)CC(O)(c1csc(-c2ccccc2)n1)CC3O (stereo unspecified)
inactive: dose: 1.56 mg/kg/injection, schedule: Q01DX009 (ip), vehicle: water 106 % of control | dose: 3.13 mg/kg/injection, schedule: Q01DX009 (ip), vehicle: water 100 % of control | dose: 6.25 mg/kg/injection, schedule: Q01DX009 (ip), vehicle: water 109 % of control | dose: 12.5 mg/kg/injection, schedule: Q01DX009 (ip), vehicle: water 109 % of control | dose: 25.0 mg/kg/injection, schedule: Q01DX009 (ip), vehicle: water 103 % of control | dose: 50.0 mg/kg/injection, schedule: Q01DX009 (ip), vehicle: water 108 % of control

C/C=C1/CN2CC[C@@]34c5cc([C@]67C8CCN9C/C(=C/C)[C@H](CC96)C(C(=O)OC)N7c6ccccc68)c(OC)cc5N(C)[C@H]3C2CC1C4C(=O)OC (stereo partly specified)
inactive: dose: 5.25 mg/kg/injection, schedule: Q01DX005 (ip), vehicle: Klucel (hydroxypropylcellulose) (HPC) 104 % of control | dose: 10.5 mg/kg/injection, schedule: Q01DX005 (ip), vehicle: Klucel (hydroxypropylcellulose) (HPC) 98 % of control | dose: 21.0 mg/kg/injection, schedule: Q01DX005 (ip), vehicle: Klucel (hydroxypropylcellulose) (HPC) 90 % of control | dose: 42.0 mg/kg/injection, schedule: Q01DX005 (ip), vehicle: Klucel (hydroxypropylcellulose) (HPC) 96 % of control

Fc1ccc(CN2COc3c(ccc4cccnc34)C2)c(F)c1
inactive: [7] 95 % of control | [8] 112 % of control | [9] 89 % of control

c1ccc2c(c1)-c1cc3ccc4ccccc4c3nc1C1OC21 (stereo unspecified)
inactive: dose: 25.0 mg/kg/injection, schedule: Q04DX002 (ip), vehicle: saline with Tween-80 105 % of control | dose: 50.0 mg/kg/injection, schedule: Q04DX002 (ip), vehicle: saline with Tween-80 99 % of control | dose: 100.0 mg/kg/injection, schedule: Q04DX002 (ip), vehicle: saline with Tween-80 100 % of control

CC1(C)N=C(N)N=C(N)N1c1cccc(Cl)c1Cl
inactive: dose: 5.0 mg/kg/injection, schedule: Q01DX009 (ip), vehicle: saline with Tween-80 100 % of control | dose: 5.0 mg/kg/injection, schedule: Q04DX003 (ip), vehicle: saline 95 % of control | dose: 10.0 mg/kg/injection, schedule: Q01DX009 (ip), vehicle: saline with Tween-80 108 % of control | dose: 10.0 mg/kg/injection, schedule: Q04DX003 (ip), vehicle: saline 95 % of control | dose: 20.0 mg/kg/injection, schedule: Q01DX009 (ip), vehicle: saline with Tween-80 121 % of control | dose: 20.0 mg/kg/injection, schedule: Q04DX003 (ip), vehicle: saline 116 % of control

COc1ccc(C(OC(C)(C)C)c2cc(C(C)(C)C)cc(C(C)(C)C)c2O)cc1 (stereo unspecified)
inactive: dose: 50.0 mg/kg/injection, schedule: Q01DX005 (ip), vehicle: distilled water + alcohol 101 % of control | dose: 100.0 mg/kg/injection, schedule: Q01DX005 (ip), vehicle: distilled water + alcohol 104 % of control | dose: 200.0 mg/kg/injection, schedule: Q01DX005 (ip), vehicle: distilled water + alcohol 97 % of control

CN1C(=O)C(=O)N(Cc2ccc(CN3C(=O)C(=O)N(C)C3=O)cc2)C1=O
inactive: dose: 50.0 mg/kg/injection, schedule: Q01DX009 (ip), vehicle: Klucel (hydroxypropylcellulose) (HPC) 101 % of control | dose: 100.0 mg/kg/injection, schedule: Q01DX009 (ip), vehicle: Klucel (hydroxypropylcellulose) (HPC) 103 % of control | dose: 200.0 mg/kg/injection, schedule: Q01DX009 (ip), vehicle: Klucel (hydroxypropylcellulose) (HPC) 100 % of control

C[C@H]1CC(c2ccc(Cl)cc2)[C@@H](c2ccccc2)C(=O)O1 (stereo partly specified)
inactive: [7] 92 % of control | [8] 93 % of control | [9] 92 % of control

O=S(=O)(O)c1ccc2cccc(N=Nc3c(O)ccc4ccccc34)c2c1
inactive: dose: 12.5 mg/kg/injection, schedule: Q01DX009 (ip), vehicle: saline 104 % of control | dose: 25.0 mg/kg/injection, schedule: Q01DX009 (ip), vehicle: saline 101 % of control | [6] 93 % of control

COC(=O)CCC(N=C(OC)c1ccccc1)C(=O)OC (stereo unspecified)
inactive: dose: 50.0 mg/kg/injection, schedule: Q01DX005 (ip), vehicle: Klucel (hydroxypropylcellulose) (HPC) 98 % of control | dose: 100.0 mg/kg/injection, schedule: Q01DX005 (ip), vehicle: Klucel (hydroxypropylcellulose) (HPC) 103 % of control | dose: 200.0 mg/kg/injection, schedule: Q01DX005 (ip), vehicle: Klucel (hydroxypropylcellulose) (HPC) 101 % of control

CSc1ccc(NC(=O)ON2C(=O)c3ccccc3C2=O)cc1
inactive: dose: 6.25 mg/kg/injection, schedule: Q01DX009 (ip), vehicle: saline with Tween-80 119 % of control | dose: 12.5 mg/kg/injection, schedule: Q01DX009 (ip), vehicle: saline with Tween-80 110 % of control | dose: 25.0 mg/kg/injection, schedule: Q01DX009 (ip), vehicle: saline with Tween-80 112 % of control | [1] 119 % of control

CCOC(=O)c1ccc(NC(=O)Nc2n[nH]c(NC(=O)Nc3ccc(C(=O)OCC)cc3)n2)cc1
inactive: dose: 12.5 mg/kg/injection, schedule: Q01DX009 (ip), vehicle: distilled water + Tween-80 95 % of control | dose: 25.0 mg/kg/injection, schedule: Q01DX009 (ip), vehicle: distilled water + Tween-80 114 % of control | dose: 50.0 mg/kg/injection, schedule: Q01DX009 (ip), vehicle: distilled water + Tween-80 89 % of control | dose: 100.0 mg/kg/injection, schedule: Q01DX009 (ip), vehicle: distilled water + Tween-80 88 % of control

CC(C#N)(Cc1ccccc1)Nc1ccccc1 (stereo unspecified)
inactive: [1] 95 % of control | [2] 90 % of control | [3] 95 % of control
